Patent publication US4314998A, “6-Deoxyglucosamine-peptide derivatives, their production and use” (Takeda Chemical Industries, Ltd., priority 1979, dated 1982)

System: Meth-A fibrosarcoma cells
Assay: Inhibition of growth of Meth-A fibrosarcoma in mice (compound mixed with tumor cells)
Assay type: in vivo
Settings: 100 μg mixed with 5×10^4 Meth-A fibrosarcoma cells, intracutaneous, female Balb/C mice
Procedure: For example, 100 μg of the compounds obtained in accordance with the present invention suspended in a phosphate-buffered saline and mixed with 5×10^4 Meth-A fibrosarcoma cells, followed by intracutaneous administration to female Balb/C mice. The effects to inhibit the growth of Meth-A were examined at 1 week intervals until the 4th week after the administration.

Measured: The number of tumor-free mice/the number of mice tested

2-(2-acetamido-2,6-dideoxy-6-mycoloylamino-D-glucopyranos-3-O-yl)-D-propionyl-L-alanyl-D-isoglutamine [Example 7]
10/10: week 2 | week 3 | week 4

2-(2-acetamido-2,6-dideoxy-6-mycoloylamino-D-glucopyranos-3-O-yl)-D-propionyl-L-valyl-D-isoglutamine [Example 9]
10/10: week 1 | week 2 | week 3 | week 4
